Assays:
[1] = test system: human keratinocyte cell line (HaCaT); test: Cytokine secretion on protein level in activated human keratinocyte cell line HaCaT (13-plex FACS / Luminex, supernatant); assay type: cell-based; details: for IL-12p70 cytokine concentration / IL-22 cytokine concentration: excluded from the final assessment
Method: (§1) Primary T-cells were isolated from peripheral blood from healthy volunteers and from secondary lymphatic organs from naïve C57BL/6 mice, respectively. The cells were stimulated with phorbol-12-myristate-13-acetate (PMA)/Ionomycin and interferon-gamma (IFN-γ), respectively, for 48 h to activate the cells. The activated cells release pro-inflammatory cytokines. In parallel a human (HaCaT) keratinocyte cell line was activated with PMA/Ionomycin and IFN-γ, respectively, too. […] At the same time release of anti-inflammatory IL-10 was inhibited. Two days after addition of PMA/Ionomycin and IFN-γ, respectively, the induction of IL-1 secretion was determined in the supernatant for proving that the cells are activated. […] The anti-inflammatory properties of the tripeptides were determined 48 h and 72 h following stimulation. A 13-plex-system based FACS analysis was used for showing the reduced secretion of pro-inflammatory cytokines in the supernatant. Data for IL-1, IL-2, IL-6, IL-12p70 IL-17, IFN-γ and TNF-α are considered to be most relevant. Thus, analysis of the anti-inflammatory properties of the tripeptides is preferably based on the results obtained for these analytes. […] Using this method the gene expression of pro-inflammatory markers like IL-6, IL-17, IFN-γ and TNF-α was determined.
In a third experiment murine and human T cells and HaCaT cells were stimulated with PMA/Ionomycin and treated with Examples 14, 15, 16 and 17 at 10^−7 M, 10^−9 M and 10^−11 M. Cytokine concentrations (IFN-γ, IL-17 and IL-10 for T cells and IFN-γ for HaCat) were assessed in the supernatants using the Luminex technology. Expression of genes coding for Il-1β, IL-6 and TNF-α was determined. […] Moreover, concentrations of pro-inflammatory cytokines IFN-γ and IL-17 was reduced in the supernatants whereas the concentration of anti-inflammatory cytokine IL-10 was increased. […]
For the biological assay two human cell lines of different origin were chosen to allow for translation of the results obtained. A HaCaT cell is a cell type belonging to an immortal human keratinocyte line used in scientific research. Its use in research allows for the characterization of human keratinocyte using a model that is reproducible and representing a human epithelial cell line. In contrast human T-lymphocytes (T-cells) are a type of lymphocyte (itself a type of white blood cell) that play a central role in cell-mediated inflammation/immunity.

primary murine T-cells = test: Cytokine secretion on protein level in activated primary murine T-cells (13-plex FACS / Luminex, supernatant); assay type: cell-based, C57BL/6 mice; details: 10^−9M
Method: as §1
In a third experiment murine and human T cells and HaCaT cells were stimulated with PMA/Ionomycin and treated with Examples 14, 15, 16 and 17 at 10^−7 M, 10^−9 M and 10^−11 M. Cytokine concentrations (IFN-γ, IL-17 and IL-10 for T cells and IFN-γ for HaCat) were assessed in the supernatants using the Luminex technology. Expression of genes coding for Il-1β, IL-6 and TNF-α was determined. […] Moreover, concentrations of pro-inflammatory cytokines IFN-γ and IL-17 was reduced in the supernatants whereas the concentration of anti-inflammatory cytokine IL-10 was increased.
The anti-inflammatory and immunomodulatory effects of selected examples of the present invention were compared with common immunosuppressants. Thus, cells activated with PMA/Ionomycin and IFN-γ, respectively, were stimulated with MMF or dexamethasone. Following stimulation the secretion of pro-inflammatory cytokines was analyzed on protein and gene level (Table 9 and FIGS. 4-6).

[2] = HaCaT stimulated with PBS, 10^−9M
[3] = HaCaT stimulated with PMA/Ionomycin, 10^−9M
[4] = primary murine T-cells stimulated with IFN-γ
[5] = primary murine T-cells stimulated with PBS
[6] = primary murine T-cells stimulated with PMA/Ionomycin
[7] = primary murine T-cells stimulated with PMA/Ionomycin, 1:10 dilution of the supernatants

H-(L)-Lys-(D)-Pro-N^α-methyl-(L)-Thr-OH [Example 2]
IL-10 cytokine concentration [1, 2]: 151.26 pg/mL | IL-13 cytokine concentration [1, 2]: 69.36 pg/mL | IL-17 cytokine concentration [1, 2]: 569.9 pg/mL | TNF-α cytokine concentration [1, 2]: 84.84 pg/mL | IL-12p70 cytokine concentration [1, 2]: 1864.02 pg/mL | IL-22 cytokine concentration [1, 2]: 14446.9 pg/mL | IFN-γ cytokine concentration [1, 3]: 704.33 pg/mL | IL-1 cytokine concentration [1, 3]: 204.23 pg/mL | IL-2 cytokine concentration [1, 3]: 130.08 pg/mL | IL-4 cytokine concentration [1, 3]: 58.48 pg/mL | IL-5 cytokine concentration [1, 3]: 129.65 pg/mL | IL-6 cytokine concentration [1, 3]: 129.99 pg/mL | IL-9 cytokine concentration [1, 3]: 104.14 pg/mL | IL-10 cytokine concentration [1, 3]: 97.55 pg/mL | IL-13 cytokine concentration [1, 3]: 69.36 pg/mL | IL-17 cytokine concentration [1, 3]: 369.01 pg/mL | TNF-α cytokine concentration [1, 3]: 62.15 pg/mL | IL-12p70 cytokine concentration [1, 3]: 0 pg/mL | IL-22 cytokine concentration [1, 3]: 14806.4 pg/mL | secretion / expression of pro-inflammatory cytokines (supernatant) ([1]; activated human keratinocytes): decreased secretion | IL-1 cytokine concentration (primary murine T-cells; [4]): 22.78 pg/mL | IL-2 cytokine concentration (primary murine T-cells; [4]): 0 pg/mL | IL-4 cytokine concentration (primary murine T-cells; [4]): 0 pg/mL | IL-5 cytokine concentration (primary murine T-cells; [4]): 72.11 pg/mL | IL-6 cytokine concentration (primary murine T-cells; [4]): 23.14 pg/mL | IL-10 cytokine concentration (primary murine T-cells; [4]): 72.95 pg/mL | IL-13 cytokine concentration (primary murine T-cells; [4]): 0 pg/mL | IL-17 cytokine concentration (primary murine T-cells; [4]): 0 pg/mL | IL-21 cytokine concentration (primary murine T-cells; [4]): 0 pg/mL | IL-22 cytokine concentration (primary murine T-cells; [4]): 8.52 pg/mL | IL-27 cytokine concentration (primary murine T-cells; [4]): 1234.48 pg/mL | TNF-α cytokine concentration (primary murine T-cells; [4]): 0 pg/mL | IFN-γ cytokine concentration (primary murine T-cells; [5]): 2375.02 pg/mL | IL-1 cytokine concentration (primary murine T-cells; [5]): 36.6 pg/mL | IL-2 cytokine concentration (primary murine T-cells; [5]): 138.15 pg/mL | IL-4 cytokine concentration (primary murine T-cells; [5]): 0 pg/mL | IL-5 cytokine concentration (primary murine T-cells; [5]): 45.71 pg/mL | IL-6 cytokine concentration (primary murine T-cells; [5]): 0 pg/mL | IL-10 cytokine concentration (primary murine T-cells; [5]): 0 pg/mL | IL-13 cytokine concentration (primary murine T-cells; [5]): 0 pg/mL | IL-17 cytokine concentration (primary murine T-cells; [5]): 0 pg/mL | IL-21 cytokine concentration (primary murine T-cells; [5]): 0 pg/mL | IL-22 cytokine concentration (primary murine T-cells; [5]): 0 pg/mL | IL-27 cytokine concentration (primary murine T-cells; [5]): 0 pg/mL | TNF-α cytokine concentration (primary murine T-cells; [5]): 0 pg/mL | IL-1 cytokine concentration (primary murine T-cells; [6]): 0 pg/mL | IL-4 cytokine concentration (primary murine T-cells; [6]): 129.47 pg/mL | IL-5 cytokine concentration (primary murine T-cells; [6]): 350.49 pg/mL | IL-6 cytokine concentration (primary murine T-cells; [6]): 338.28 pg/mL | IL-10 cytokine concentration (primary murine T-cells; [6]): 155.42 pg/mL | IL-13 cytokine concentration (primary murine T-cells; [6]): 4703.82 pg/mL | IL-17 cytokine concentration (primary murine T-cells; [6]): 649.14 pg/mL | IL-21 cytokine concentration (primary murine T-cells; [6]): 0 pg/mL | IL-22 cytokine concentration (primary murine T-cells; [6]): 670.15 pg/mL | IL-27 cytokine concentration (primary murine T-cells; [6]): 778.4 pg/mL | TNF-α cytokine concentration (primary murine T-cells; [6]): 628.15 pg/mL | IFN-γ* cytokine concentration (primary murine T-cells; [7]): 0 pg/mL | IL-2* cytokine concentration (primary murine T-cells; [7]): 744.58 pg/mL

From patent US10954269B2, “Anti-inflammatory tripeptides” (Dr. August Wolff Gmbh & Co. KG Arzneimittel, priority 2013, dated 2021)
